# Measurements published in patent US8058258B2, “Methods for cancer therapy and stem cell modulation” (Agency for Science, Technology and Research, priority 2006, dated 2011).
# Legend:
# Suv39h1 = experiment: Western blot of Suv39h1 protein levels; assay type: cell-based, human; conditions: HCT116 or MCF-7 cells, 5 μM, 48 and 72 hours
# Method: (§1) Cell lines used in these examples were purchased from the American Type Culture Collection (Manassas, Va.). Cells were maintained in DMEM supplemented with 10% fetal bovine serum with glutamine, penicillin, and streptomycin. For drug treatment, cells were seeded the day before the drug treatment. Cells were treated with 5 μM 3-Deazaneplanocin A or 2 μM 5-aza-2'-deoxycytidine (5-AzaC; Sigma) for 72 hours and trichostatin A (TSA; Sigma) at 100 nM for 24 hours. For co-treatment of cells with 5-AzaC and TSA, 5-Aza was added for 48 hours and followed by TSA for 24 hours. Cell pellets were first lysed in RadioImmuno Precipitation Assay (RIPA) buffer, consisting of an aqueous solution of 25 mM Tris-HCl pH 7.6, 150 mM NaCl, 1% Nonidet-P 40 (NP-40), 1% sodium deoxycholate and 0.1% sodium dodecylsulfate (SDS), before further sonicated using a tissue homogeniser to release all the proteins. Equal amounts of protein were separated on SDS-polyacrylamide gels and transferred to polyvinylidene difluoride (PVDF) membranes. The blots were probed with antibodies against: EED (07-368), SUZ12 (07-379), SUV39H1 (07-550), BMI1 (05-637), tri-methylated H3-K27 (07-449), tri-methylated H3-K9 (07-442) and Acetyl-Histone H3 (06-599), and were purchased from Upstate. EZH2 (AC22) and Histone H3 (3H1) were from Cell Signaling. […]
# histone acetylation = experiment: Western blot of histone acetylation; assay type: cell-based, human; conditions: HCT116 or MCF-7 cells, 5 μM, 48 and 72 hours
# Method: as §1
# [1] = test system: caspase 3 in HCT116 cells; experiment: Caspase 3 activity by flow cytometry; assay type: cell-based
# From the text: FIG. 3D depicts the detection of activation the protease caspase 3 potential in HCT116 cells by 3-deazaneplanocin (DZNep, right hand side), which occurs during apoptosis. Cells were trypsinised and washed with PBS and fixed in 70% ethanol and processed for propidium iodide staining and FACS analysis. For the caspase 3 activity assay and mitochondrial membrane potential detection, cells were stained with anti-active caspase 3 and JC-1, respectively, according to the manufacturer's instructions (BD Bioscience).
# [2] = test system: RNA polymerase II binding to PRC2 target gene promoters; experiment: ChIP of RNA Pol II binding to PRC2 target gene promoters; assay type: cell-based, human; conditions: MCF-7 cells, 5 μM, 48 hours
# Method: ChIP assays were performed as described previously. […] MCF-7 cell were seeded into 6-well plates at 30% confluence and treated with or without 3-deazaneplanocin (5 μM) for 48 hours. Cells were washed once in 1× phosphate-buffered saline (PBS) and then treated with 1% formaldehyde in PBS at 37° C. for […] followed by the addition of glycine to a final concentration of 0.125 M for 5 mM. Cells were then scraped on ice and centrifuged at 1500 rpm for 5 mM at 4° C. After washing with PBS cell pellets were resuspended in 1 mL of cold lysis buffer (10 mM HEPES at pH 7.5, 1 mM EDTA at pH 8.0, 400 mM NaCl, 10% glycerol, 0.5% NP-40, 0.5 mM phenylmethylsulfonyl fluoride, and protease inhibitors [1 mM benzamidine, 3 mg/mL leupeptin, 0.1 mg/mL bacitracin, 1 mg/mL macroglobulin]) followed by centrifugation at 11,500 rpm in a microfuge for 5 min at 4° C. to remove protein not cross-linked to chromatin. The resulting pellets were then resuspended again in 1 mL of cold lysis buffer and sonicated with a Heat Systems-Ultrasonics, Inc. W-220 sonicator at 20% output for a total of 2 mM (pulsed: 30 sec on/30 sec off). The resulting solution was cleared by centrifugation at maximum speed in a microfuge for 10 mM at 4° C. At this point 5% of the solution was taken and stored at −20° C. for the input chromatin sample. […]
compound,measurement,setting,value
"Nc1nccc2c1ncn2C1C=C(CO)C(O)C1O (stereo not shown) [3-deazaneplanocin, 5-(4-amino-1H-imidazo[4,5-c]pyridin-1-yl)-3-(hydroxymethyl)-3-cyclopentene-1,2-diol]",Suv39h1 protein levels,Suv39h1,not affected
same,histone acetylation,histone acetylation,did not affect
same,activation of the protease caspase 3,[1],activation
same,binding of RNA Pol II to PRC2 target gene promoters (ChIP),[2],increased
